According to patent US9061030B2, “sGC stimulators” (IRONWOOD PHARMACEUTICALS, INC., priority 2010, dated 2015):

System: Thoracic aortic rings
Assay: Thoracic aortic rings assay
Set-up: species or system rat
Settings: for inhibition at 1 µM: 1 μM compound, read-out: Percent Relaxation at 1 μM; for inhibition at 1 µM / inhibition at 3 µM / inhibition at 10 µM: rat thoracic aortic rings contracted with 100 ng/mL phenylephrine; for inhibition at 3 µM: 3 μM compound, read-out: Percent Relaxation at 3 μM; for inhibition at 10 µM: 10 μM compound, read-out: Percent Relaxation at 10 μM; for EC50: relaxation of rat thoracic aortic rings contracted with 100 ng/mL phenylephrine, read-out: Aortic Ring EC50
Procedure: Thoracic aortic rings were dissected from anesthetized (isoflurane) male Sprague-Dawley rats weighing 275-299 g. Tissues were immediately transferred to ice-cold Krebs-Henseleit solution, which had been aerated with 95% O2 and 5% CO2 for 30 minutes. Following removal of connective tissue, aortic sections were cut into 4 rings (˜2 mm each) and suspended on 2 L-shaped hooks, with one hook fixed at the bottom of the tissue bath (Schuler Organ Bath, Harvard Apparatus) and the other connected to a force transducer (F30 Force Transducer, Harvard Apparatus). Baths contained Krebs Henseleit solution (10 mL) heated to 37° C. and aerated with 95% O2 and 5% CO2. Rings were brought to an initial tension of 0.3-0.5 g and gradually raised to a resting tension of 1.0 g over 60 minutes. Rings were rinsed with Krebs Henseleit solution (heated to 37° C. and aerated with 95% 02 and 5% CO2) at 15 minute intervals until a stable baseline was obtained. Rings were considered to be stable after a resting tension of 1.0 g was maintained (for approximately 10 minutes) without need for adjustment. Rings were then contracted with 100 ng/mL phenylephrine by adding 100 μL of a 10 μg/mL phenylephrine stock solution. Tissues achieving a stable contraction were then treated in a cumulative, dose dependent manner with test compounds prepared in dimethylsulfoxide (DMSO). In some cases, tissues were rinsed three times over a 5 minute period with Krebs-Heinseleit's solution (heated to 37° C. and aerated with 95% 02 and 5% CO2), allowed to stabilize at baseline, and then used for characterization of other test articles or DMSO effects. All data were collected using the HSE-ACAD software provided by Harvard Apparatus. Percent relaxation effects were calculated in Microsoft Excel using the recorded tension value of 100 ng/mL phenylephrine treatment as 0% inhibition and, after washing the tissue with buffer, the original resting tension of tissue is used as 100% inhibition. EC50 values were calculated from concentration-response curves generated with GraphPad Prism Software.
The biological data for some of the compounds of Formula IA and Formula IB, in comparison with the prior art compound, BAY 41-2272, as the reference compound, determined by the thoracic aorta ring assay are presented in Table 6 below.

EC50 [nM]	SMILES	inhibition at 1 µM [%]	inhibition at 3 µM [%]	inhibition at 10 µM [%]
< 1000	Fc1ccccc1Cn1nc(-c2ccccn2)nc1-c1cscn1 [Compound I-4]	60 to 80	100 to 120	
< 1000	Fc1ccccc1Cn1nc(-c2ccccn2)nc1-c1cocn1 [Compound I-12, 4-(1-(2-fluorobenzyl)-3-(pyridin-2-yl)-1H-1,2,4-triazol-5-yl)oxazole]	40 to 60	80 to 100	100 to 120
1000 to 2000	Nc1ccnc(-c2nc(-c3cscn3)n(Cc3ccccc3F)n2)c1 [Compound I-53, 2-(1-(2-fluorobenzyl)-5-(thiazol-4-yl)-1H-1,2,4-triazol-3-yl)pyridin-4-amine]	20 to 40	80 to 100	100 to 120
< 1000	Fc1ccccc1Cn1nc(-c2ccccn2)nc1-c1nccs1 [Compound I-25]	40 to 60	80 to 100	100 to 120
1000 to 2000	Fc1ccccc1Cn1nc(-c2ccccn2)nc1-c1ncco1 [Compound I-6]	20 to 40	60 to 80	100 to 120
1000 to 2000	Fc1ccc(-c2nc(-c3nccs3)n(Cc3ccccc3F)n2)nc1 [Compound I-38]	40 to 60	80 to 100	100 to 120
< 1000	Nc1ccnc(-c2nc(-c3nccs3)n(Cc3ccccc3F)n2)c1 [Compound I-44]	80 to 100	100 to 120	100 to 120
2000 to 3000	Fc1ccccc1Cn1nc(-c2ncccn2)nc1-c1cocn1 [Compound I-46]	20 to 40	60 to 80	80 to 100
1000 to 2000	Fc1ccccc1Cn1nc(-c2ccccn2)nc1-c1ccccn1 [Compound I-1]	20 to 40	60 to 80	100 to 120

Further lines, the compound ahead of its results:

SMILES	EC50 [nM]	inhibition at 1 µM [%]	inhibition at 3 µM [%]	inhibition at 10 µM [%]
Nc1ccnc(-c2nc(-c3nccs3)n(Cc3ccccc3F)n2)n1 [Compound I-48, 2-(1-(2-fluorobenzyl)-5-(thiazol-2-yl)-1H-1,2,4-triazol-3-yl)pyrimidin-4-amine]	1000 to 2000	40 to 60	80 to 100	100 to 120
Fc1ccccc1Cn1nc(-c2cscn2)nc1-c1nccs1 [Compound I-40]	1000 to 2000	20 to 40	60 to 80	100 to 120
Fc1ccccc1Cn1nc(-c2ncccn2)nc1-c1nccs1 [Compound I-30]	2000 to 3000	20 to 40	60 to 80	100 to 120
COC(=O)N(C)c1c(N)nc(-c2nc(-c3nccs3)n(Cc3ccccc3F)n2)nc1N [Compound I-61, methyl 4,6-diamino-2-(1-(2-fluorobenzyl)-5-(thiazol-2-yl)-1H-1,2,4-triazol-3-yl)pyrimidin-5-yl(methyl)carbamate]	< 1000	60 to 80	80 to 100	
Fc1ccccc1Cn1nc(-c2nccs2)nc1-c1cscn1 [Compound I-41]	< 1000	80 to 100	100 to 120	100 to 120
Fc1ccccc1Cn1nc(-c2ncccn2)nc1-c1cscn1 [Compound I-3]	1000 to 2000	40 to 60	80 to 100	100 to 120
Fc1ccccc1Cn1nc(-c2ccccn2)nc1-n1cncn1 [Compound I-50, 2′-(2-fluorobenzyl)-5′-(pyridin-2-yl)-2′H-1,3′-bi(1′,2′,4-triazole)]		10 to 20	20 to 40	60 to 80
